# *1 amine or outer side, *2 acyl side, *3 side chain or, on linkers, in order; H or OH if unused. Where a SMILES comes first, the peptide text is derived from it. Bridges are numbered along the chain shown (N, C = ends). [ ]: non-standard residue; d: D form. The star is where a group is joined. ξ: configuration not given here. Phe(3-CF3) = N[C@@H](Cc1cccc(C(F)(F)F)c1)C(=O)O; Ala(morpholin-4-yl) = N[C@@H](CN1CCOCC1)C(=O)O; Phe(4-COOH) = N[C@@H](Cc1ccc(C(=O)O)cc1)C(=O)O; Bip = N[C@@H](Cc1ccc(-c2ccccc2)cc1)C(=O)O; Phe(3-Me) = Cc1cccc(C[C@H](N)C(=O)O)c1; γGlu = O=C(O)[C@H](CCC(=O)[*:2])N[*:1]; NH(CH2)12COOH = O=C(O)CCCCCCCCCCCCN*; Val(3-OH) = CC(C)(O)[C@H](N)C(=O)O; hArg = N=C(N)NCCCC[C@H](N)C(=O)O; 4Pal = N[C@@H](Cc1ccncc1)C(=O)O; Aad = N[C@@H](CCCC(=O)O)C(=O)O; Cha = N[C@@H](CC1CCCCC1)C(=O)O; Cit = NC(=O)NCCC[C@H](N)C(=O)O; Ile(3ξ) = CCC(C)[C@H](N)C(=O)O; Thr(3ξ) = CC(O)[C@H](N)C(=O)O; 12Ado = NCCCCCCCCCCCC(=O)O; Carboxymethyl = O=C(O)C*; NMeA = CN[C@@H](C)C(=O)O; Orn = NCCC[C@H](N)C(=O)O; Aun = NCCCCCCCCCCC(=O)O; Dab = NCC[C@H](N)C(=O)O; AEEA = NCCOCCOCC(=O)O
# Biological target: T1, PD-1/PD-L1 interaction (PE-labeled human PD-L1-Ig binding to Jurkat cell line over-expressing human PD-1) (Homo sapiens, UniProt Q15116)
# T1 construct: expressed in transfected cells; host or cells: Jurkat
# T1 sequence (Q15116 25-288): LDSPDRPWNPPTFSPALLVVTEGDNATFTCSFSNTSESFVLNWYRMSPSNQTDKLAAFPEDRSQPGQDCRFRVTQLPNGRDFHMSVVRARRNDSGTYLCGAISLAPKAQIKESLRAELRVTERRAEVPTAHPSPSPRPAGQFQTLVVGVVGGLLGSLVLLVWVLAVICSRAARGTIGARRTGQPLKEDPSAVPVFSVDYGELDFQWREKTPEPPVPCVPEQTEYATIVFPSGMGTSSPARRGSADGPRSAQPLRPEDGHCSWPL
# Experiment: Jurkat-PD-1 Cell Binding High-Content Screening Assay (CBA)
# Conditions: Jurkat-hPD-1 cells, PE-labeled PD-L1-Ig 20 nM final; read-out: Jurkat HPD1 PDL1 IC50
# In short: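 Read-out: high-content imaging of cell-bound PE fluorescence, with Hoechst 33342 nuclear counterstain after paraformaldehyde fixation. Before labeled ligand (20 nM final, 1 h) was added, compound sat on the cells for 2 h at 37 °C in DMEM/10% FCS.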
row,SMILES,IC50 [µM]
1,CC(C)C[C@@H]1NC(=O)[C@H](Cc2c[nH]c3ccccc23)NC(=O)[C@H](CC(=O)O)NC(=O)[C@H](Cc2c[nH]cn2)NC(=O)[C@H](CCCCNC(=N)N)NC(=O)CSC[C@@H](C(=O)N[C@@H](CCN)C(=O)NCCCCCCCCCCC(=O)O)NC(=O)[C@H](CCCCN)NC(=O)[C@H](C(C)C)NC(=O)[C@H](CC2CCCCC2)NC(=O)[C@H](CCN)NC(=O)[C@@H](CC(C)C)NC(=O)[C@H](C)N(C)C(=O)[C@H](C(C)C)NC(=O)[C@H](Cc2ccc(-c3ccccc3)cc2)NC1=O [Example 2194] ({CH2CO}-[hArg]HDWL[Bip]V[NMeA][dL][Dab][Cha]VKC[Dab][Aun]-OH; thioether N-14),0.0396
2,CC(C)C[C@H]1NC(=O)[C@H](C)N(C)C(=O)[C@H](C(C)C)NC(=O)[C@H](Cc2ccc(-c3ccccc3)cc2)NC(=O)[C@H](C(C)C)NC(=O)[C@H](Cc2c[nH]c3ccccc23)NC(=O)[C@H](CC(=O)O)NC(=O)[C@H](Cc2ccc(OCC(=O)O)cc2)NC(=O)[C@H](Cc2ccncc2)NC(=O)CSC[C@@H](C(=O)N[C@@H](CCN)C(=O)NCCOCCOCC(=O)N[C@@H](CCC(=O)NCCOCCOCC(=O)N[C@@H](CCCCN)C(=O)NCCCCCCCCCCCC(=O)O)C(=O)O)NC(=O)[C@H](CO)NC(=O)[C@H](C(C)C)NC(=O)[C@H](CC2CCCCC2)NC(=O)[C@H](CCN)NC1=O [Example 2118] ({CH2CO}-[4Pal]Y(Carboxymethyl)DWV[Bip]V[NMeA][dL][Dab][Cha]VSC[Dab][AEEA][γGlu][AEEA]K[12Ado]-OH; thioether N-14),0.0143
3,COC[C@@H]1NC(=O)CSC[C@@H](C(=O)N[C@@H](CCN)C(=O)NCCOCCOCC(=O)N[C@@H](CCC(=O)NCCOCCOCC(=O)NCCCCCCCCCCCCC(=O)O)C(=O)O)NC(=O)[C@H](CO)NC(=O)[C@H](C(C)(C)O)NC(=O)[C@H](CC2CCCCC2)NC(=O)[C@H](CCN)NC(=O)[C@@H](CC(C)C)NC(=O)[C@H](C)N(C)C(=O)[C@H](CCC(N)=O)NC(=O)[C@H](Cc2ccc(-c3ccccc3)cc2)NC(=O)[C@H](Cc2ccc(C(=O)O)cc2)NC(=O)[C@H](Cc2cccc(C(F)(F)F)c2)NC(=O)[C@H](CC(=O)O)NC(=O)[C@H](Cc2ccc(OCC(=O)O)cc2)NC1=O [Example 1164] ({CH2CO}-S(Me)Y(Carboxymethyl)D[Phe(3-CF3)][Phe(4-COOH)][Bip]Q[NMeA][dL][Dab][Cha][Val(3-OH)]SC[Dab][AEEA][γGlu][AEEA]-{NH(CH2)12COOH}; thioether N-14),0.0089
4,CCC(C)[C@@H]1NC(=O)[C@H](Cc2ccc(-c3ccccc3)cc2)NC(=O)[C@H](C(C)C)NC(=O)[C@H](Cc2c[nH]c3ccccc23)NC(=O)[C@H](CC(=O)O)NC(=O)[C@H](Cc2ccc(OCC(=O)O)cc2)NC(=O)[C@H](C(C)O)NC(=O)CSC[C@@H](C(=O)N[C@H](CC(N)=O)C(=O)NCCOCCOCC(=O)N[C@@H](CCC(=O)N[C@@H](CCCN)C(=O)NCCCCCCCCCCC(=O)O)C(=O)O)NC(=O)[C@H](CO)NC(=O)[C@H](C(C)C)NC(=O)[C@H](CC(C)C)NC(=O)[C@H](CCN)NC(=O)[C@@H](CC(C)C)NC(=O)[C@H](C)N(C)C1=O (stereo partly drawn) [Example 2051] ({CH2CO}-[Thr(3ξ)]Y(Carboxymethyl)DWV[Bip][Ile(3ξ)][NMeA][dL][Dab]LVSC[dN][AEEA][γGlu][Orn][Aun]-OH; thioether N-14),0.109
5,CC(C)C[C@@H]1NC(=O)[C@H](Cc2c[nH]c3ccccc23)NC(=O)[C@H](CC(=O)O)NC(=O)[C@H](Cc2ccc(OCC(=O)O)cc2)NC(=O)[C@H](CCCCNC(=N)N)NC(=O)CSC[C@@H](C(=O)NCC(=O)NCCOCCOCC(=O)N[C@@H](CCCNC(N)=O)C(=O)NCCCCCCCCCCC(=O)O)NC(=O)[C@H](CCCNC(N)=O)NC(=O)[C@H](C(C)C)NC(=O)[C@H](CC2CCCCC2)NC(=O)[C@H](CCN)NC(=O)[C@@H](CC(C)C)NC(=O)[C@H](C)N(C)C(=O)[C@H](C(C)C)NC(=O)[C@H](Cc2ccc(-c3ccccc3)cc2)NC1=O [Example 2182] ({CH2CO}-[hArg]Y(Carboxymethyl)DWL[Bip]V[NMeA][dL][Dab][Cha]V[Cit]CG[AEEA][Cit][Aun]-OH; thioether N-14),0.0123

# Next, values leading:
row,IC50 [µM],SMILES
1,0.0342,CC(C)C[C@H]1NC(=O)[C@H](C)N(C)C(=O)[C@H](Cc2ccc(O)cc2)NC(=O)[C@H](Cc2ccc(-c3ccccc3)cc2)NC(=O)[C@H](C(C)C)NC(=O)[C@H](Cc2c[nH]c3ccccc23)NC(=O)[C@H](CC(=O)O)NC(=O)[C@H](Cc2ccc(OCC(=O)O)cc2)NC(=O)[C@H](Cc2ccncc2)NC(=O)CSC[C@@H](C(=O)N[C@@H](CCN)C(=O)NCCCCCCCCCCC(=O)O)NC(=O)[C@H]([C@@H](C)O)NC(=O)[C@H](C(C)C)NC(=O)[C@H](CC2CCCCC2)NC(=O)[C@H](CCN)NC1=O [Example 1324] ({CH2CO}-[4Pal]Y(Carboxymethyl)DWV[Bip]Y[NMeA][dL][Dab][Cha]VTC[Dab][Aun]-OH; thioether N-14)
2,0.0046,CC(=O)NCCCC[C@@H]1NC(=O)[C@H](C(C)(C)O)NC(=O)[C@H](CC2CCCCC2)NC(=O)[C@H](CCN)NC(=O)[C@@H](CC(C)C)NC(=O)[C@H](C)N(C)C(=O)[C@H](CCCNC(N)=O)NC(=O)[C@H](Cc2ccc(-c3ccccc3)cc2)NC(=O)[C@H](Cc2ccc(C(=O)O)cc2)NC(=O)[C@H](Cc2cccc(C(F)(F)F)c2)NC(=O)[C@H](CC(=O)O)NC(=O)[C@H](Cc2ccc(OCC(=O)O)cc2)NC(=O)[C@H](CN2CCOCC2)NC(=O)CSC[C@@H](C(=O)N[C@@H](CCN)C(=O)NCCCCCCCCCCCCC(=O)O)NC1=O [Example 1157] ({CH2CO}-[Ala(morpholin-4-yl)]Y(Carboxymethyl)D[Phe(3-CF3)][Phe(4-COOH)][Bip][Cit][NMeA][dL][Dab][Cha][Val(3-OH)]K(Ac)C[Dab]-{NH(CH2)12COOH}; thioether N-14)
3,0.0199,CC(C)C[C@@H]1NC(=O)[C@H](Cc2c[nH]c3ccccc23)NC(=O)[C@H](CC(=O)O)NC(=O)[C@H](Cc2ccc(C(=O)O)cc2)NC(=O)[C@H](Cc2ccc(OCC(=O)O)cc2)NC(=O)CSC[C@@H](C(=O)N[C@@H](CCCN)C(=O)NCCOCCOCC(=O)NCCCCCCCCCCC(=O)O)NC(=O)[C@H](CCCCN)NC(=O)[C@H](C(C)C)NC(=O)[C@H](CC2CCCCC2)NC(=O)[C@H](CCCC(=O)O)NC(=O)[C@@H](CC(C)C)NC(=O)[C@H](C)N(C)C(=O)[C@H](C(C)C)NC(=O)[C@H](Cc2ccc(-c3ccccc3)cc2)NC1=O [Example 2152] ({CH2CO}-Y(Carboxymethyl)[Phe(4-COOH)]DWL[Bip]V[NMeA][dL][Aad][Cha]VKC[Orn][AEEA][Aun]-OH; thioether N-14)
4,0.024,CC(C)C[C@@H]1NC(=O)[C@H](Cc2c[nH]c3ccccc23)NC(=O)[C@H](CC(=O)O)NC(=O)[C@H](Cc2ccc(C(=O)O)cc2)NC(=O)[C@H](Cc2ccc(OCC(=O)O)cc2)NC(=O)CSC[C@@H](C(=O)N[C@@H](CCCN)C(=O)NCCCCCCCCCCC(=O)O)NC(=O)[C@H](CCC(=O)O)NC(=O)[C@H](C(C)C)NC(=O)[C@H](CC2CCCCC2)NC(=O)[C@H](CCN)NC(=O)[C@@H](CC(C)C)NC(=O)[C@H](C)N(C)C(=O)[C@H](C(C)C)NC(=O)[C@H](Cc2ccc(-c3ccccc3)cc2)NC1=O [Example 1328] ({CH2CO}-Y(Carboxymethyl)[Phe(4-COOH)]DWL[Bip]V[NMeA][dL][Dab][Cha]VEC[Orn][Aun]-OH; thioether N-14)
5,0.0487,Cc1cccc(C[C@@H]2NC(=O)[C@H](CC(=O)O)NC(=O)[C@H](Cc3ccc(OCC(=O)O)cc3)NC(=O)[C@H](CCCNC(=N)N)NC(=O)CSC[C@@H](C(=O)N[C@@H](CCCCN)C(=O)NCCCCCCCCCCC(=O)O)NC(=O)[C@H]([C@@H](C)O)NC(=O)[C@H](C(C)C)NC(=O)[C@H](CC3CCCCC3)NC(=O)[C@H](CCN)NC(=O)[C@@H](CC(C)C)NC(=O)[C@H](C)N(C)C(=O)[C@H](Cc3ccc(OCC(=O)O)cc3)NC(=O)[C@H](Cc3ccc(-c4ccccc4)cc3)NC(=O)[C@H](Cc3ccc(C(=O)O)cc3)NC2=O)c1 [Example 1225] ({CH2CO}-RY(Carboxymethyl)D[Phe(3-Me)][Phe(4-COOH)][Bip]Y(Carboxymethyl)[NMeA][dL][Dab][Cha]VTCK[Aun]-OH; thioether N-14)
6,0.0146,CC(=O)NCCCC[C@@H]1NC(=O)[C@H](Cc2ccc(-c3ccccc3)cc2)NC(=O)[C@H](Cc2ccc(O)cc2)NC(=O)[C@H](Cc2cccc(C)c2)NC(=O)[C@H](CC(=O)O)NC(=O)[C@H](Cc2ccc(OCC(=O)O)cc2)NC(=O)[C@H](CCN)NC(=O)CSC[C@@H](C(=O)N[C@@H](CCN)C(=O)NCCCCCCCCCCC(=O)O)NC(=O)[C@H](C(C)O)NC(=O)[C@H](C(C)C)NC(=O)[C@H](CC2CCCCC2)NC(=O)[C@H](CCN)NC(=O)[C@@H](CC(C)C)NC(=O)[C@H](C)N(C)C1=O (stereo partly drawn) [Example 2421] ({CH2CO}-[Dab]Y(Carboxymethyl)D[Phe(3-Me)]Y[Bip]K(Ac)[NMeA][dL][Dab][Cha]V[Thr(3ξ)]C[Dab][Aun]-OH; thioether N-14)

# Same assay, conditions: PE-labeled PD-L1-Ig 20 nM final, Jurkat-hPD-1 cells; read-out: Jurkat HPD1 PDL1 IC50
row,IC50 [µM],SMILES
1,0.0296,CC(C)C[C@H]1NC(=O)[C@H](C)N(C)C(=O)[C@H](Cc2ccc(OCC(=O)O)cc2)NC(=O)[C@H](Cc2ccc(-c3ccccc3)cc2)NC(=O)[C@H](Cc2ccc(C(=O)O)cc2)NC(=O)[C@H](Cc2cccc(C(F)(F)F)c2)NC(=O)[C@H](CC(=O)O)NC(=O)[C@H](Cc2ccc(OCC(=O)O)cc2)NC(=O)[C@H](C(C)O)NC(=O)CSC[C@@H](C(=O)N[C@@H](CCN)C(=O)NCCCCCCCCCCC(=O)O)NC(=O)[C@H](CO)NC(=O)[C@H](C(C)(C)O)NC(=O)[C@H](CC2CCCCC2)NC(=O)[C@H](Cc2cnc[nH]2)NC1=O (stereo partly drawn) [Example 2575] ({CH2CO}-[Thr(3ξ)]Y(Carboxymethyl)D[Phe(3-CF3)][Phe(4-COOH)][Bip]Y(Carboxymethyl)[NMeA][dL]H[Cha][Val(3-OH)]SC[Dab][Aun]-OH; thioether N-14)
